According to US8163805B2, “Small molecule antagonists of Bcl-2 family proteins” (The Regents of the University of Michigan, priority 2001, dated 2012):
Read-outs that look alike come from different tables or passages of the source.

Columns and labels:
[1] = target: T1, Bcl-2 (Homo sapiens, UniProt P10415); experiment: FP binding assay, Flu-Bad-25 peptide and GST-fusion Bcl-2 (FIG. 4, 45); conditions: FIG. 4
T1 construct: purchased Santa Cruz Biotechnology

[2] = test system: MCF-7 breast cancer cell line; experiment: Growth inhibition with TAXOL in fixed ratio, MCF-7; format: cell-based, human; conditions: combinations in a fixed ratio to TAXOL
[3] = test system: UM-SCC-23; experiment: 6-day MTT cell growth, UM-SCC-23; format: cell-based, human; conditions: read-out: IC50, inhibition of cell growth
Experimental: (§1) UM-SCC and human fibroblast cell lines were continuously exposed to varying concentrations of (−)-gossypol in 6-day MTT cell survival assays. Control wells contained media (DMEM) with vehicle alone. For each data point n=5.
(§2) Ten squamous cell carcinoma cell lines established at the University of Michigan (UM-SCC) and three human fibroblast lines were grown in Dulbecco's modified Eagle's medium (DMEM) supplemented with 10% fetal bovine serum. UM-SCC cell lines originated from the larynx (n=2; UM-SCC-12, -23), oral cavity/oropharynx (n=5; UM-SCC-1, -6, -14A, -74B, -81B), hypopharynx (n=1; UM-SCC-22A) and metastases from laryngeal cancers (n=2; UM-SCC-17B, -25). Human fibroblast cell lines originated from surgical specimens (fibroblast cell lines 2 and 3) and neonatal foreskin samples (fibroblast cell line 1).
(§3) Logarithmically growing cell lines were cultured, washed, counted, and plated at 5,000-15,000 cells per well in duplicate wells of 96-well plates and incubated in DMEM overnight. […] The MTT assay measures cell survival based on mitochondrial conversion of MTT from a soluble tetrazolium salt into an insoluble colored formazan precipitate, which is dissolved in dimethyl sulfoxide and quantitated by spectrophotometry. […] Percent absorbance relative to control was plotted as a linear function of drug concentration.

[4] = test system: UM-SCC-12; experiment: 6-day MTT cell growth, UM-SCC-12; format: cell-based, human; conditions: read-out: IC50, inhibition of cell growth
Experimental: as §1, §2, §3

[5] = test system: UM-SCC-81B; experiment: 6-day MTT cell growth, UM-SCC-81B; format: cell-based, human; conditions: read-out: IC50, inhibition of cell growth
Experimental: as §1, §2, §3

[6] = test system: UM-SCC-17B; experiment: 6-day MTT cell growth, UM-SCC-17B; format: cell-based, human; conditions: read-out: IC50, inhibition of cell growth
Experimental: as §1, §2, §3

[7] = test system: UM-SCC-25; experiment: 6-day MTT cell growth, UM-SCC-25; format: cell-based, human; conditions: read-out: IC50, inhibition of cell growth
Experimental: as §1, §2, §3

[8] = test system: Fib-1 (fibroblast cell line 1); experiment: 6-day MTT cell growth, Fib-1; format: cell-based, human; conditions: read-out: IC50, inhibition of cell growth
Experimental: as §1, §2, §3

[9] = test system: Fib-3 (fibroblast cell line 3); experiment: 6-day MTT cell growth, Fib-3; format: cell-based, human; conditions: read-out: IC50, inhibition of cell growth
Experimental: as §1, §2, §3

[10] = test system: HNSCC cell lines; experiment: 6-day MTT cell survival, mean over HNSCC cell lines; format: cell-based, human
[11] = test system: fibroblasts; experiment: 6-day MTT cell survival, mean over fibroblasts; format: cell-based, human
[12] = test system: UM-SCC-12; experiment: Flow cytometric TUNEL apoptosis assay, UM-SCC-12; format: cell-based, human; conditions: 10 μM, 48-hour
Experimental: (§4) Briefly, FIGS. 24A-24C show apoptosis after (−)-gossypol as measured by a fluorescent flow cytometric TUNEL assay. Open peaks represent BrdU labeling of untreated cells. Shaded peaks indicate BrdU labeling of cell populations following 48-hour treatment with 10 μM (−)-gossypol; FIG. 24A, UM-SCC-cell lines with wild type p53; FIG. 24B, UM-SCC-cell lines with mutant p53; and FIG. 24C normal fibroblast cells.
(§5) Apoptosis of UM-SCC cell lines following (−)-gossypol treatment was quantitatively detected by enzymatic labeling of DNA strand breaks using terminal deoxynucleotidyltransferase (TdT) and Alexa Fluor-BrdUTP, known as the TdT-UTP nick end-labeling (TUNEL) assay by flow cytometry. Cells were exposed to (−)-gossypol for 48 hours, harvested, fixed and TUNEL stained according to the manufacturer's protocol (Molecular Probes Inc., Eugene, Oreg.). Ten thousand cells were analyzed per sample using excitation of Alexa Fluor at 488 nm. Apoptotic index (AI) was defined as percent of apoptotic cells in the treatment population minus that in the vehicle control population.

[13] = test system: UM-SCC-14A; experiment: Flow cytometric TUNEL apoptosis assay, UM-SCC-14A; format: cell-based, human; conditions: 10 μM, 48-hour
Experimental: as §4, §5

[14] = test system: fibroblast cell lines; experiment: Flow cytometric TUNEL apoptosis assay, fibroblast cell lines; format: cell-based, human; conditions: 10 μM, 48-hour
Experimental: as §4, §5

[15] = test system: UM-SCC cell lines; experiment: Flow cytometric TUNEL apoptosis assay, UM-SCC cell lines grouped by p53 status; format: cell-based, human; conditions: 48-hour
[16] = test system: PC-3 prostate cancer cells; experiment: MTT-based 5-day cell proliferation, PC-3; design: species or system human
From the text: The present invention is not limited to any mechanism. Indeed, a mechanistic understanding of the invention is unnecessary to practice (make and use) the present compositions and methods.

[17] = target: T2, Bcl-XL and pro-apoptotic protein Bim (Homo sapiens, UniProt Q07817); experiment: Immunoprecipitation of Bcl-XL/Bim heterodimerization in HT-29 cells; format: cell-based; conditions: HT-29, starting at 8 hrs
T2 construct: endogenous in cells; host or cells: HT-29 colon cancer cells
T2 sequence (Q07817 whole entry): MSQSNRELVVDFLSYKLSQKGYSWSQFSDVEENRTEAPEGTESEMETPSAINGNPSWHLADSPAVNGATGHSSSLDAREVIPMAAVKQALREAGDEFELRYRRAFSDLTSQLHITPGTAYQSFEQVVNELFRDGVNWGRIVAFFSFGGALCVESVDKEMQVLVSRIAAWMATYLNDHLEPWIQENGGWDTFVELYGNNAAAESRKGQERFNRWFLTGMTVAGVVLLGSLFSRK
Experimental: In one embodiment HT-29 colon cancer cells, which express only the Bcl-xL protein, were treated with (−)-gossypol at various doses for 4 hrs, 8 hrs, and 12 hrs. To avoid the detergent effects on the dimerization of Bcl-xL proteins in immunoprecipitation experiments, following the treatment of cells with gossypol, immunoprecipitation of cell lysates was carried out in the Chaps buffer with the anti-Bcl-XL antibody. The Bcl-XL bound proteins were then immunoblotted with anti-Bim antibody. […] There is no change in the total Bcl-XL or Bim protein in the same lysates following the (−)-gossypol treatment.

[18] = test system: PARP protein; experiment: PARP protein cleavage; format: cell-based; conditions: compared under identical doses
[19] = test system: PC-3 cells
[20] = test system: PC-3 xenograft
[21] = test system: A549 non-small cell lung carcinoma xenograft; experiment: A549 non-small cell lung carcinoma xenograft, (−)-gossypol with paclitaxel; conditions: Table 13; combinations of G- with paclitaxel at 7.5 mg/kg
[22] = 8 Gy radiation with 4 μM gossypol
[23] = 8 Gy radiation with 5 μM gossypol
[24] = Table 17 (content identical to Table 18)
[25] = Table 18, PC-3 xenograft, (−)-gossypol 10 mg/kg orally for 4 weeks, radiation 2 Gy 5 times/week

T1 sequence (P10415 1-205 limits assumed): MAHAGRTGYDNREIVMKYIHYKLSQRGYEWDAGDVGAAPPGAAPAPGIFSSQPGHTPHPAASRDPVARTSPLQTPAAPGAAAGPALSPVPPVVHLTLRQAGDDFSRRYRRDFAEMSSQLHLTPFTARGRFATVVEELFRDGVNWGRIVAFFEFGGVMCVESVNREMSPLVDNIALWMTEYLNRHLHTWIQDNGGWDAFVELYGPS

## Cc1cc2c(C(C)C)c(O)c(O)c(C=O)c2c(O)c1-c1c(C)cc2c(C(C)C)c(O)c(O)c(C=O)c2c1O [(−)-gossypol]
[1]
  inhibition of binding between Bid BH3 peptide and Bcl-2: directly inhibit binding between Bid BH3 peptide and Bcl-2
[2]
  IC50: 8.71 µM
[3]
  IC50: 1.5 µM
[4]
  IC50: 4 µM
[5]
  IC50: 4 µM
[6]
  IC50: 5 µM
[7]
  IC50: 8 µM
[8]
  IC50: 20 µM
[9]
  IC50: 18 µM
[10]
  IC50: 5.57 ± 2.57 µM
[11]
  IC50: 20.3 ± 9.2 µM
[12]
  apoptotic index (AI): 27.2%
[13]
  apoptotic index (AI): 14.1%
[14]
  induction of apoptosis: no induction of apoptosis
[15]; two cell lines with mutant p53, 10 μM
  mean apoptotic index: 20.7%±9.3
[15]; two wild-type p53 tumor cell lines, 10 μM
  mean apoptotic index (AI): 85.2%±6.9
[16]
  potency in inhibiting cancer cell growth relative to (+)-gossypol: 5-10 times
  potency in inhibiting cancer cell growth relative to racemic gossypol: 2 times
[17]
  binding of Bcl-XL and Bim in intact cells: dose-dependent decrease in the binding of Bcl-XL and pro-apoptotic protein Bim
[18]
  cleavage of PARP protein: more cleavage of PARP protein
[19]; [22]
  Combination Index (CI): 0.34
  Dose Reduction Index (DRI): 4.3
[19]; [23]
  Combination Index (CI): 0.27
  Dose Reduction Index (DRI): 6.1
[19]; with 6 Gy X-ray
  reduction in colony formation from controls: 10 fold
[19]; with 8 Gy X-ray
  reduction in colony formation from controls: 20 fold
[20]; (−)-gossypol 10 mg/kg with or without radiation
  toxicity by bodyweight measurements: no significant toxicity
[20]; (−)-gossypol alone, 10 mg/kg oral, 4 weeks
  antitumor effect: minimal antitumor effect
[20]; Table 14, (−)-gossypol 10 mg/kg p.o. in combination with radiation 2 Gy per day, total 30 Gy
  tumor growth inhibition compared with vehicle control, day 39: achieved 93% tumor growth
[20]; Table 14, PC-3 flank xenografts (~150 mm^3 at start), (−)-gossypol 10 mg/kg p.o. 5 times q week for 4 weeks, alone, not significant
  tumor growth inhibition, day 39: regimen (about 20%, P = 0.3 or 0.7,
[20]; [24]
  Tumor Growth Delay (T − C Days): 0 days
  Tumor Growth Inhibition (T/C %): 98.6%
[20]; [25]
  Tumor Growth Delay (T − C Days): 0 days
  Tumor Growth Inhibition (T/C %): 98.6%
[21]
  tumor growth inhibition compared with vehicle control: 76% tumor growth inhibition as
